Data as given in patent US10457709B2, “Antimicrobial peptides, their variants and uses” (priority 2015, dated 2019).
Like-named read-outs stand apart in the source and are kept apart here. Square brackets hold non-standard residues; d marks the D form. Peptide text beside a SMILES is read from it.

Key:
[1] = system: Enterobacter cloacae clinical strains; type: cell-based; design: Minimum inhibitory concentration: unit: μg/ml; conditions: microdilution, Muller Hinton broth-cation adjusted, 0.02% BSA, 0.2% acetic acid
Protocol: (§1) Minimum inhibition concentrations (MICs) were determined against Escherichia coli (ATCC 25922), Staphylococcus aureus (ATCC 25923), Klebsiella pneumoniae (ATCC 10031) and Pseudomonas aeruginosa (ATCC 27853). Also clinical strains of E. coli, K. pneumoniae, E. cloacae, P. aeruginosa, Serratia marcescens, Proteus mirabilis, S. pneumoniae, Acinetobacter baumannii, A. johnsonii and S. aureus were used for MICs assays. Additionally, clinical strains of yeast including Candida albicans, C. glabrata, C. parapsilosis and C. quillermondiae were used. The susceptibility of these microorganisms to Chain peptides were determined using micro broth dilution assay. Colonies of the respective microorganism from Muller Hinton (MH) agar plates incubated overnight were suspended in MH broth media and final concentration of microorganism was adjusted to 5.0×10^5 cfu/ml. An aliquot of 10 μl of each Chain peptide, or gentamicin, tetracycline as reference antibiotics were added in differing concentrations along with 90 μl of bacterial suspension to 96 well polypropylene plates and incubated at 37° C. for 20 to 24 hours. Concentrations of Chain peptides and reference antibiotics ranged from 0.125 to 128 μg/ml and the MICs were recorded as the lowest concentration with no visual growth of bacteria. Similarly, antifungal MICs were tested in Potato dextrose broth.
(§2) Clinical strains of yeasts including Candida albicans, C. glabrata, C. parapsilosis and C. quillermondiae were also tested with the 12 Chain peptides. The minimum inhibitory concentration (MICs) varied between these peptides and are presented in Tables 4a, 4b, 4c and 5a, 5b, 5c. Peptides Chain 105, 201 and 308 are broad spectrum antimicrobials with MICs between 0.5-32 μg/ml against all the bacteria and yeasts tested, except Serratia marcescens and Proteus mirabilis, against which the MICs were between 64-128 μg/ml. Peptide Chain 306 has narrow spectrum activity against E. coli at 1 μg/ml and for the rest of the bacterial strains at >32 μg/ml (FIG. 10c).

[2] = system: Proteus mirabilis clinical strains; type: cell-based; design: Minimum inhibitory concentration: unit: μg/ml; conditions: microdilution, Muller Hinton broth-cation adjusted, 0.02% BSA, 0.2% acetic acid
Protocol: as §1, §2

[3] = system: Serratia marcescens clinical strains; type: cell-based; design: Minimum inhibitory concentration: unit: μg/ml; conditions: microdilution, Muller Hinton broth-cation adjusted, 0.02% BSA, 0.2% acetic acid
Protocol: as §1, §2

[4] = system: Staphylococcus aureus clinical strains; type: cell-based; design: Minimum inhibitory concentration: unit: μg/ml; conditions: microdilution, Muller Hinton broth-cation adjusted, 0.02% BSA, 0.2% acetic acid
Protocol: as §1, §2

[5] = system: Streptococcus pneumoniae clinical strains; type: cell-based; design: Minimum inhibitory concentration: unit: μg/ml; conditions: microdilution, Muller Hinton broth-cation adjusted, 0.02% BSA, 0.2% acetic acid
Protocol: as §1, §2

[6] = system: Candida albicans clinical strains; experiment: MIC, clinical yeast strains; type: cell-based; design: unit: μg/ml
Protocol: as §1, §2

[7] = system: C. glabrata clinical strains; experiment: MIC, clinical yeast strains; type: cell-based, Candida glabrata; design: unit: µg/ml
Protocol: as §1, §2

[8] = system: C. parapsilosis clinical strains; experiment: MIC, clinical yeast strains; type: cell-based, Candida parapsilosis; design: unit: µg/ml
Protocol: as §1, §2

[9] = system: C. quillermondiae clinical strains; experiment: MIC, clinical yeast strains; type: cell-based, Candida quillermondiae; design: unit: μg/ml; conditions: C. quillermondiae clinical yeast strain 1
Protocol: as §1, §2

[10] = system: Escherichia coli clinical strains; type: cell-based; conditions: microdilution, Muller Hinton broth-cation adjusted, 0.02% BSA, 0.2% acetic acid
Protocol: as §1, §2

[11] = system: Klebsiella pneumoniae clinical strains; type: cell-based; conditions: microdilution, Muller Hinton broth-cation adjusted, 0.02% BSA, 0.2% acetic acid
Protocol: as §1, §2

[12] = system: Pseudomonas aeruginosa clinical strains; type: cell-based; conditions: microdilution, Muller Hinton broth-cation adjusted, 0.02% BSA, 0.2% acetic acid
Protocol: as §1, §2

Measured: Minimum inhibitory concentration

CC(C)C[C@@H](NC(=O)[C@H](N)CCCCN)C(=O)N[C@H](CCCCN)C(=O)N[C@H](Cc1c[nH]c2ccccc12)C(=O)N[C@H](Cc1ccccc1)C(=O)N[C@H](Cc1c[nH]c2ccccc12)C(=O)N[C@H](CC(C)C)C(=O)N[C@H](Cc1ccccc1)C(=O)N[C@H](CCCCN)C(=O)N[C@H](CCCCN)C(=O)N[C@H](CCCNC(=N)N)C(=O)O [Chain311D] (H-[dK][dL][dK][dW][dF][dW][dL][dF][dK][dK][dR]-OH)
128: [2]; Proteus mirabilis clinical strain 2 | [2]; Proteus mirabilis clinical strain 3
8: [5]; Streptococcus pneumoniae clinical strain 2 | [5]; Streptococcus pneumoniae clinical strain 5 | [6]; Candida albicans clinical yeast strain 1 | [6]; Candida albicans clinical yeast strain 2 | [6]; Candida albicans clinical yeast strain 3 | [7]; C. glabrata clinical yeast strain 3 | [8]; C. parapsilosis clinical yeast strain 2 | [8]; C. parapsilosis clinical yeast strain 3 | [8]; C. parapsilosis clinical yeast strain 4 | [11]; Klebsiella pneumoniae clinical strain 1 | [11]; Klebsiella pneumoniae clinical strain 2 | [11]; Klebsiella pneumoniae clinical strain 4 | [12]; Pseudomonas aeruginosa clinical strain 2 | [12]; Pseudomonas aeruginosa clinical strain 4
64: [7]; C. glabrata clinical yeast strain 4
>128: [2]; Proteus mirabilis clinical strain 1 | [2]; Proteus mirabilis clinical strain 4 | [2]; Proteus mirabilis clinical strain 5 | [3]; Serratia marcescens clinical strain 1 | [3]; Serratia marcescens clinical strain 2 | [3]; Serratia marcescens clinical strain 3 | [3]; Serratia marcescens clinical strain 4 | [3]; Serratia marcescens clinical strain 5
0.5: [10]; Escherichia coli clinical strain 4
2: [1]; Enterobacter cloacae clinical strain 5 | [10]; Escherichia coli clinical strain 1 | [10]; Escherichia coli clinical strain 2
16: [5]; Streptococcus pneumoniae clinical strain 1 | [5]; Streptococcus pneumoniae clinical strain 3 | [6]; Candida albicans clinical yeast strain 4 | [6]; Candida albicans clinical yeast strain 5 | [7]; C. glabrata clinical yeast strain 1 | [7]; C. glabrata clinical yeast strain 2 | [8]; C. parapsilosis clinical yeast strain 1 | [12]; Pseudomonas aeruginosa clinical strain 1 | [12]; Pseudomonas aeruginosa clinical strain 3
1: [4]; Staphylococcus aureus clinical strain 1 | [4]; Staphylococcus aureus clinical strain 2 | [4]; Staphylococcus aureus clinical strain 3 | [4]; Staphylococcus aureus clinical strain 4 | [4]; Staphylococcus aureus clinical strain 5 | [10]; Escherichia coli clinical strain 3 | [10]; Escherichia coli clinical strain 5
4: [1]; Enterobacter cloacae clinical strain 1 | [1]; Enterobacter cloacae clinical strain 2 | [1]; Enterobacter cloacae clinical strain 3 | [1]; Enterobacter cloacae clinical strain 4 | [5]; Streptococcus pneumoniae clinical strain 4 | [9] | [11]; Klebsiella pneumoniae clinical strain 3 | [11]; Klebsiella pneumoniae clinical strain 5 | [12]; Pseudomonas aeruginosa clinical strain 5
